Experimental data reported in patent publication US20260356957A1, “METHODS FOR TREATMENT OF NON-SMALL CELL LUNG CANCER (NSCLC)” (Janssen Biotech, Inc., priority 2023, published 2026).
Marks after values point to notes of the source that are not given here.

Experiment: MARIPOSA Phase 3, adverse events
Type: in vivo, human
Source text: • 1. […] Incidence and Severity of Adverse Events (AEs) [Time Frame: Up to approximately 60 months]. Incidence and severity of treatment emergent adverse events (TEAEs) will be reported. Any adverse event occurring at or after the initial administration of study treatment through the day of last dose plus 30 days, or until the start of subsequent anticancer therapy (if earlier), is considered to be treatment emergent. • 8. Number of Participants with Clinical Laboratory Abnormalities [Time Frame: Up to approximately 60 months]. Number of participants with clinical laboratory abnormalities (serum chemistry, hematology, blood coagulation, and urine samples) will be reported. • 9. Number of Participants with Vital Signs Abnormalities [Time Frame: Up to approximately 60 months]. Number of participants with vital signs abnormalities (temperature, heart rate, respiratory rate, oxygen saturation, blood pressure) will be reported. • 10. Number of Participants with Physical Examination Abnormalities [Time Frame: Up to approximately 60 months]. Number of participants with physical examination abnormalities will be reported. • 11. […] The NSCLC-SAQ contains 7 items that assess cough, pain, dyspnea, fatigue, and poor appetite over a 7-day recall period. Each multi-item scale and individual item will be summarized using count and percent by visit. • 15. […] EORTC-QLQ-C30 is a core 30-item questionnaire for evaluating the health-related quality of life (HRQOL) of participants participating in cancer clinical studies. • 16.

[1] = AE of interest, grouped preferred terms
[2] = Grade 5 AE, deemed treatment-related
[3] = TEAE leading to discontinuations of any study agent
[4] = TEAE leading to dose reductions of any study agent

**Q.** With C=CC(=O)Nc1cc(Nc2nccc(-c3cn(C)c4ccccc34)n2)c(OC)cc1N(C)CCN(C)C [Osimertinib] as the compound, how does the “Venous thromboembolism, No. of days to first onset, median (range)” value (AE of interest) read?
**A.** 194 (10-675) days

**Q.** And the “Any venous thromboembolism event, No. of patients (%)” value [1]?
**A.** 39 (9) no. (%)

**Q.** And the “Rash, Duration of event, median no. of days (range)” value [1]?
**A.** 51 (1-625) days

**Q.** And the “Rash, No. of days to first onset, median (range)” value [1]?
**A.** 29 (1-799) days

**Q.** And the “Rash, No. of events, any grade” value [1]?
**A.** 238

**Q.** And the “Rash, No. of patients (%)” value [1]?
**A.** 210 (49) no. (%)

**Q.** And the Anemia (AE, All grades)?
**A.** 91 (21) no. (%)

**Q.** What about the Asthenia (AE, All grades) of the same compound?
**A.** 46 (11) no. (%)

**Q.** What about the COVID-19 (AE, All grades) of the same compound?
**A.** 103 (24) no. (%)

**Q.** And the Constipation (AE, All grades)?
**A.** 55 (13) no. (%)

**Q.** And the Cough (AE, All grades)?
**A.** 88 (21) no. (%)

**Q.** And the Decreased appetite (AE, All grades)?
**A.** 76 (18) no. (%)

**Q.** What about the Dermatitis acneiform (AE, All grades) of the same compound?
**A.** 55 (13) no. (%)

**Q.** And the Diarrhea (AE, All grades)?
**A.** 190 (44) no. (%)

**Q.** And the Dry skin (AE, All grades)?
**A.** 60 (14) no. (%)

**Q.** And the Dyspnea (AE, All grades)?
**A.** 68 (16) no. (%)

**Q.** And the Fatigue (AE, All grades)?
**A.** 42 (10) no. (%)

**Q.** What about the Hypoalbuminemia (AE, All grades) of the same compound?
**A.** 26 (6) no. (%)

**Q.** And the Hypocalcemia (AE, All grades)?
**A.** 35 (8) no. (%)

**Q.** What about the Increased alanine aminotransferase (AE, All grades) of the same compound?
**A.** 57 (13) no. (%)

**Q.** And the Increased aspartate aminotransferase (AE, All grades)?
**A.** 58 (14) no. (%)

**Q.** And the Infusion-related reaction (AE, All grades)?
**A.** 0 no. (%)

**Q.** And the Leukopenia (AE, All grades)?
**A.** 66 (15) no. (%)

**Q.** And the Muscle spasms (AE, All grades)?
**A.** 32 (7) no. (%)

**Q.** And the Nausea (AE, All grades)?
**A.** 58 (14) no. (%)

**Q.** And the Pain in extremity (AE, All grades)?
**A.** 22 (5) no. (%)

**Q.** And the Paronychia (AE, All grades)?
**A.** 121 (28) no. (%)

**Q.** And the Peripheral edema (AE, All grades)?
**A.** 24 (6) no. (%)

**Q.** What about the Pruritus (AE, All grades) of the same compound?
**A.** 73 (17) no. (%)

**Q.** What about the Pulmonary embolism (AE, All grades) of the same compound?
**A.** 20 (5) no. (%)

**Q.** What about the Rash (AE, All grades) of the same compound?
**A.** 131 (31) no. (%)

**Q.** And the Stomatitis (AE, All grades)?
**A.** 90 (21) no. (%)

**Q.** And the Thrombocytopenia (AE, All grades)?
**A.** 84 (20) no. (%)

**Q.** And the Anemia (AE, Grade ≥3)?
**A.** 7 (2) no. (%)

**Q.** And the Asthenia (AE, Grade ≥3)?
**A.** 4 (1) no. (%)

**Q.** And the COVID-19 (AE, Grade ≥3)?
**A.** 9 (2) no. (%)

**Q.** And the Constipation (AE, Grade ≥3)?
**A.** 0 no. (%)

**Q.** And the Cough (AE, Grade ≥3)?
**A.** 0 no. (%)

**Q.** And the Decreased appetite (AE, Grade ≥3)?
**A.** 6 (1) no. (%)

**Q.** What about the Dermatitis acneiform (AE, Grade ≥3) of the same compound?
**A.** 0 no. (%)

**Q.** And the Diarrhea (AE, Grade ≥3)?
**A.** 3 (1) no. (%)

**Q.** And the Dry skin (AE, Grade ≥3)?
**A.** 1 (0.2) no. (%)

**Q.** And the Dyspnea (AE, Grade ≥3)?
**A.** 17 (4) no. (%)

**Q.** What about the Fatigue (AE, Grade ≥3) of the same compound?
**A.** 4 (1) no. (%)

**Q.** What about the Hypoalbuminemia (AE, Grade ≥3) of the same compound?
**A.** 0 no. (%)

**Q.** And the Hypocalcemia (AE, Grade ≥3)?
**A.** 0 no. (%)

**Q.** And the Increased alanine aminotransferase (AE, Grade ≥3)?
**A.** 8 (2) no. (%)

**Q.** What about the Increased aspartate aminotransferase (AE, Grade ≥3) of the same compound?
**A.** 5 (1) no. (%)

**Q.** And the Infusion-related reaction (AE, Grade ≥3)?
**A.** 0 no. (%)

**Q.** What about the Leukopenia (AE, Grade ≥3) of the same compound?
**A.** 0 no. (%)

**Q.** And the Muscle spasms (AE, Grade ≥3)?
**A.** 0 no. (%)

**Q.** What about the Nausea (AE, Grade ≥3) of the same compound?
**A.** 1 (0.2) no. (%)

**Q.** What about the Pain in extremity (AE, Grade ≥3) of the same compound?
**A.** 0 no. (%)

**Q.** And the Paronychia (AE, Grade ≥3)?
**A.** 2 (0.5) no. (%)

**Q.** What about the Peripheral edema (AE, Grade ≥3) of the same compound?
**A.** 0 no. (%)

**Q.** And the Pruritus (AE, Grade ≥3)?
**A.** 1 (0.2) no. (%)

**Q.** What about the Pulmonary embolism (AE, Grade ≥3) of the same compound?
**A.** 10 (2) no. (%)

**Q.** What about the Rash (AE, Grade ≥3) of the same compound?
**A.** 3 (1) no. (%)

**Q.** And the Stomatitis (AE, Grade ≥3)?
**A.** 1 (0.2) no. (%)

**Q.** What about the Thrombocytopenia (AE, Grade ≥3) of the same compound?
**A.** 5 (1) no. (%)

**Q.** And the Acinetobacter sepsis (Grade 5 AE)?
**A.** 0 no. (%)

**Q.** What about the “Acute respiratory distress syndrome” value (Grade 5 AE) of the same compound?
**A.** 0 no. (%)

**Q.** What about the Arteriosclerosis coronary artery (Grade 5 AE) of the same compound?
**A.** 0 no. (%)

**Q.** What about the COVID-19 (Grade 5 AE) of the same compound?
**A.** 3 (1) no. (%)

**Q.** And the COVID-19 pneumonia (Grade 5 AE)?
**A.** 0 no. (%)

**Q.** What about the Cardiac failure (Grade 5 AE) of the same compound?
**A.** 1 (0.2) no. (%)

**Q.** What about the Cardiopulmonary failure (Grade 5 AE) of the same compound?
**A.** 0 no. (%)

**Q.** And the Cerebral hemorrhage (Grade 5 AE)?
**A.** 1 (0.2) no. (%)

**Q.** And the Cerebral infarction (Grade 5 AE)?
**A.** 0 no. (%)

**Q.** What about the Cerebrovascular accident (Grade 5 AE) of the same compound?
**A.** 1 (0.2) no. (%)

**Q.** What about the Circulatory collapse (Grade 5 AE) of the same compound?
**A.** 0 no. (%)

**Q.** And the Death (Grade 5 AE)?
**A.** 2 (0.5) no. (%)

**Q.** And the Dyspnea (Grade 5 AE)?
**A.** 3 (1) no. (%)

**Q.** What about the Hemoptysis (Grade 5 AE) of the same compound?
**A.** 1 (0.2) no. (%)

**Q.** And the Ischemic cerebral infarction (Grade 5 AE)?
**A.** 0 no. (%)

**Q.** What about the Ketoacidosis (Grade 5 AE) of the same compound?
**A.** 1 (0.2) no. (%)

**Q.** What about the “Lower respiratory tract infection” value (Grade 5 AE) of the same compound?
**A.** 1 (0.2) no. (%)

**Q.** And the Metabolic acidosis (Grade 5 AE)?
**A.** 1 (0.2) no. (%)

**Q.** And the Myocardial infarction (Grade 5 AE)?
**A.** 0 no. (%)

**Q.** What about the Myocardial rupture (Grade 5 AE) of the same compound?
**A.** 0 no. (%)

**Q.** And the Pericardial effusion (Grade 5 AE)?
**A.** 1 (0.2) no. (%)

**Q.** And the Pleural effusion (Grade 5 AE)?
**A.** 1 (0.2) no. (%)

**Q.** And the Pneumonia (Grade 5 AE)?
**A.** 4 (1) no. (%)

**Q.** And the Pneumonia aspiration (Grade 5 AE)?
**A.** 1 (0.2) no. (%)

**Q.** And the Pulmonary embolism (Grade 5 AE)?
**A.** 2 (0.5) no. (%)

**Q.** And the Respiratory failure (Grade 5 AE)?
**A.** 2 (0.5) no. (%)

**Q.** And the Respiratory tract infection (Grade 5 AE)?
**A.** 1 (0.2) no. (%)

**Q.** And the Sepsis (Grade 5 AE)?
**A.** 1 (0.2) no. (%)

**Q.** And the Septic shock (Grade 5 AE)?
**A.** 1 (0.2) no. (%)

**Q.** And the Sudden death (Grade 5 AE)?
**A.** 1 (0.2) no. (%)

**Q.** And the Urosepsis (Grade 5 AE)?
**A.** 0 no. (%)

**Q.** What about the Coronary artery disease [2] of the same compound?
**A.** 0 no. (%)

**Q.** What about the Interstitial lung disease [2] of the same compound?
**A.** 2 (0.5)§ no. (%)

**Q.** And the Pneumonitis [2]?
**A.** 0 no. (%)

**Q.** What about the Asthenia [3] of the same compound?
**A.** 1 (0.2) no. (%)

**Q.** What about the Dermatitis acneiform [3] of the same compound?
**A.** 0 no. (%)

**Q.** And the Hypoalbuminemia [3]?
**A.** 0 no. (%)

**Q.** And the Infusion related reaction [3]?
**A.** 0 no. (%)

**Q.** And the Interstitial lung disease [3]?
**A.** 4 (1) no. (%)

**Q.** What about the Paronychia [3] of the same compound?
**A.** 0 no. (%)

**Q.** What about the Peripheral edema [3] of the same compound?
**A.** 0 no. (%)

**Q.** And the Pneumonia [3]?
**A.** 3 (1) no. (%)

**Q.** And the Pneumonitis [3]?
**A.** 7 (2) no. (%)

**Q.** What about the Pulmonary embolism [3] of the same compound?
**A.** 2 (0.5) no. (%)

**Q.** What about the Rash [3] of the same compound?
**A.** 0 no. (%)

**Q.** What about the Dermatitis acneiform [4] of the same compound?
**A.** 0 no. (%)

**Q.** What about the Folliculitis [4] of the same compound?
**A.** 0 no. (%)

**Q.** What about the Hypoalbuminemia [4] of the same compound?
**A.** 0 no. (%)

**Q.** And the Increased alanine aminotransferase [4]?
**A.** 0 no. (%)

**Q.** What about the Increased aspartate aminotransferase [4] of the same compound?
**A.** 0 no. (%)

**Q.** And the Mucosal inflammation [4]?
**A.** 0 no. (%)

**Q.** What about the Neuropathy peripheral [4] of the same compound?
**A.** 0 no. (%)

**Q.** And the Paresthesia [4]?
**A.** 0 no. (%)

**Q.** What about the Paronychia [4] of the same compound?
**A.** 1 (0.2) no. (%)

**Q.** What about the Peripheral edema [4] of the same compound?
**A.** 0 no. (%)

**Q.** What about the Peripheral sensory neuropathy [4] of the same compound?
**A.** 0 no. (%)

**Q.** What about the Rash [4] of the same compound?
**A.** 2 (0.5) no. (%)

**Q.** And the Rash maculo-papular [4]?
**A.** 0 no. (%)

**Q.** What about the Rash pustular [4] of the same compound?
**A.** 0 no. (%)
